Values quoted from earlier work in patent US20230109016A1, “IN-VITRO DIAGNOSIS OF HISTAMINE INTOLERANCE SYNDROME” (IMMUNDIAGNOSTIK AG, priority 2020, published 2023).

Tested on: DAO
Conditions: within 30 minutes of heparin administration
In the case of heparin, the “DAO levels in humans” value is given as “increase sharply”.

Target: recombinant human kidney DAO (Homo sapiens, UniProt P19801)
Conditions: read-out: Km (Michaelis constant); isolated recombinant human kidney DAO expressed in Drosophila cells (Elmore et al. 2002)
In the case of `NCCc1c[nH]cn1` [histamine, 2-(4-imidazolyl)-ethylamine], the Km is given as roughly 2.8 µM.
In the case of `NCCCCN` [putrescine, 1,4-diaminobutane], the Km is listed as roughly 20 µM.

Target: T1, DAO in serum (Homo sapiens, UniProt P19801)
T1 construct: host or cells: serum
T1 sequence (P19801 20-751): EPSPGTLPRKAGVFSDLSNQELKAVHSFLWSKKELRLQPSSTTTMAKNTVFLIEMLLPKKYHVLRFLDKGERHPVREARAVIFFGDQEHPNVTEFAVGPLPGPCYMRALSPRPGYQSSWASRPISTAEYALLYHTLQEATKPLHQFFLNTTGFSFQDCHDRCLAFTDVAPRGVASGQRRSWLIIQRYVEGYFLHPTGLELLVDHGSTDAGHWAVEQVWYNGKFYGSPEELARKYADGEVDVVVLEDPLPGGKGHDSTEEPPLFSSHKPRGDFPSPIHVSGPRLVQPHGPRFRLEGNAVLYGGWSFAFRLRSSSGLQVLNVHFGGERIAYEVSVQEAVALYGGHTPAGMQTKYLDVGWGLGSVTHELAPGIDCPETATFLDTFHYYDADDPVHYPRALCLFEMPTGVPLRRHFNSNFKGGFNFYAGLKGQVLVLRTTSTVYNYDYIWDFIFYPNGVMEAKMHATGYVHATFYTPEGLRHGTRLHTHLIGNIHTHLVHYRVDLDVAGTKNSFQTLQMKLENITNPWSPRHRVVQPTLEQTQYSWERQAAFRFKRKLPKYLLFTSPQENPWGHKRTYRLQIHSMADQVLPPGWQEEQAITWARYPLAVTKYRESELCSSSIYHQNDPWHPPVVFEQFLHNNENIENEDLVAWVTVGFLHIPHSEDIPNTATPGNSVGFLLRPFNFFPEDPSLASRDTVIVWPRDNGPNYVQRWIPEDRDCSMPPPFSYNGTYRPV
Conditions: not given
For `CCOC(=O)C1(c2ccccc2)CCN(C)CC1` [pethidine], the “effect on the activity of DAO in serum” value is listed as “inhibited”.
For `CCCC(C)C1(CC)C(=O)NC(=S)NC1=O` (centres unmarked) [thiopental], the “effect on the activity of DAO in serum” value is given as “inhibited”.
For `CN1CC[C@]23c4c5ccc(O)c4O[C@H]2[C@@H](O)C=C[C@H]3[C@H]1C5` [morphine], the “effect on the activity of DAO in serum” value is listed as “inhibited”.

Same assay, conditions: stated as known
In the case of `NNC(=O)c1ccncc1` [isoniazid], the “effect on the activity of DAO in serum” value is given as “inhibited”.
In the case of `Cc1c(N(C)CS(=O)(=O)O)c(=O)n(-c2ccccc2)n1C` [metamizole], the “effect on the activity of DAO in serum” value is listed as “inhibited”.
In the case of `O=P1(N(CCCl)CCCl)NCCCO1` (centres unmarked) [cyclophosphamide], the “effect on the activity of DAO in serum” value is given as “inhibited”.
For `CCN(CC)CCNC(=O)c1cc(Cl)c(N)cc1OC` [metoclopramide], the “effect on the activity of DAO in serum” value is given as “inhibited”.
For `CC(CCc1ccc(O)cc1)NCCc1ccc(O)c(O)c1` (centres unmarked) [dobutamine], the “effect on the activity of DAO in serum” value is listed as “inhibited”.
In the case of `CC(=O)N[C@@H](CS)C(=O)O` [acetylcysteine], the “effect on the activity of DAO in serum” value is given as “inhibited”.
For `C=CCc1ccccc1OCC(O)CNC(C)C` (centres unmarked) [alprenolol], the “effect on the activity of DAO in serum” value is listed as “inhibited”.
In the case of `COc1cc2c3cc1Oc1cc(ccc1O)C[C@@H]1c4c(cc(OC)c(O)c4Oc4ccc(cc4)C[C@@H]3N(C)CC2)CC[N+]1(C)C` [D-tubocurarine], the “effect on the activity of DAO in serum” value is listed as “inhibited”.
For `CCN(CC)CCCC(C)Nc1ccnc2cc(Cl)ccc12` (centres unmarked) [chloroquine], the “effect on the activity of DAO in serum” value is given as “inhibited”.
For `Cn1c(=O)c2[nH]cnc2n(C)c1=O` [aminophylline], the “effect on the activity of DAO in serum” value is listed as “inhibited”.
In the case of `CN/C(=N/CCSCc1nc[nH]c1C)NC#N` [cimetidine], the “effect on the activity of DAO in serum” value is given as “inhibited”.
For `CCCNC(C)C(=O)Nc1ccccc1C` (centres unmarked) [prilocaine], the “effect on the activity of DAO in serum” value is listed as “inhibited”.
For `O=C(O)[C@H]1/C(=C/CO)O[C@@H]2CC(=O)N21` [clavulanic acid], the “effect on the activity of DAO in serum” value is given as “inhibited”.
In the case of `N=C(N)c1ccc(OCCCCCOc2ccc(C(=N)N)cc2)cc1` [pentamidin], the “effect on the activity of DAO in serum” value is listed as “inhibited”.
In the case of `CO/N=C(\C(=O)N[C@@H]1C(=O)N2C(C(=O)O)=C(COC(N)=O)CS[C@H]12)c1ccco1` [cefuroxime], the “effect on the activity of DAO in serum” value is listed as “inhibited”.
For `CN(C)CCn1nnnc1SCC1=C(C(=O)O)N2C(=O)[C@@H](NC(=O)Cc3csc(N)n3)[C@H]2SC1` [cefotiam], the “effect on the activity of DAO in serum” value is given as “inhibited”.
For `N/N=c1\[nH][nH]/c(=N\N)c2ccccc12` [dihydralazin], the “effect on the activity of DAO in serum” value is given as “inhibited”.
For `CN(C)CCC=C1c2ccccc2CCc2ccccc21` [amitriptyline], the “effect on the activity of DAO in serum” value is given as “inhibited”.
In the case of `C=CC[N@@+]12CC[C@@]34c5ccccc5N5/C=C6/[C@H]7C[C@H]8[C@@]9(CC[N@@+]8(CC=C)C/C7=C/CO)c7ccccc7N(/C=C(/[C@@H](C[C@@H]31)/C(=C\CO)C2)[C@H]54)[C@@H]69` [alcuronium], the “effect on the activity of DAO in serum” value is given as “inhibited”.
For `N=C(N)NC(=O)c1nc(Cl)c(N)nc1N` [amiloride], the “effect on the activity of DAO in serum” value is given as “inhibited”.
For `CC(=O)O[C@H]1C[C@@H]2CC[C@@H]3[C@H](CC[C@@]4(C)[C@H]3C[C@H]([N+]3(C)CCCCC3)[C@@H]4OC(C)=O)[C@@]2(C)C[C@@H]1[N+]1(C)CCCCC1` [pancuronium], the “effect on the activity of DAO in serum” value is listed as “inhibited”.
In the case of `CC(=O)Oc1ccccc1C(=O)O` [acetylsalicylic acid], the “effect on the activity of DAO in serum” value is given as “inhibited”.
In the case of `Nc1c(Br)cc(Br)cc1CN[C@H]1CC[C@H](O)CC1` [ambroxol], the “effect on the activity of DAO in serum” value is given as “inhibited”.

Target: T2, DAO (Homo sapiens, UniProt P19801)
T2 sequence (P19801 20-751): T1 sequence (P19801 20-751)
Conditions: 14C-putrescine 1 micromole to 5 millimole
For `N=C(N)NN` [alpha-aminoguanidine], the “sensitivity of serum DAO (high affinity enzyme) to inhibitor” value is given as “sensitive”.

Tested on: MAO
Conditions: 14C-putrescine 1 micromole to 5 millimole
In the case of `C#CCN(C)[C@H](C)Cc1ccccc1` [selegiline], the “sensitivity of serum MAO (lower affinity enzyme) to inhibitor” value is given as “sensitive”.

Target: Human serum DAO (Homo sapiens, UniProt P19801)
Conditions: 100 micromolar histamine in the assay
In the case of `NCCc1c[nH]cn1` [histamine, 2-(4-imidazolyl)-ethylamine], the “inhibition of human serum DAO” value is listed as “partly inhibited”.

Same assay, conditions: histamine concentration of 500 micromoles (U.S. Pat. No. 8,003,343)
In the case of `NCCc1c[nH]cn1` [histamine, 2-(4-imidazolyl)-ethylamine], the “inhibition of human DAO activity” value is given as “about 60%”.

Tested on: not given
Conditions: 37° C.
In the case of `NCCc1c[nH]cn1` [histamine, 2-(4-imidazolyl)-ethylamine], the “apparent half-life in serum” value is given as 2 to 240 min.

Target: T2, DAO
Conditions: presence of heparin in experiments with cell culture
For heparin, the “impact on the DAO level or its activity” value is given as “no impact”.
